From PubChem BioAssay AID1259407 (Chemical Carcinogenesis Research Information System (CCRIS), 2018)
Active and inactive are the calls of the source. How the calls were made is not given here.

System: CCRIS mutagenicity, Ames/micronucleus/aberration tests
Test: CCRIS mutagenicity studies

Compound: [Be]=[O]
- mutagenic call (Test System: AMES SALMONELLA TYPHIMURIUM, Strain/Indicator: TA98, Metabolic Activation: NONE, Method: PREINCUBATION): inactive; negative
- mutagenic call (Test System: AMES SALMONELLA TYPHIMURIUM, Strain/Indicator: TA98, Metabolic Activation: RAT, LIVER, S-9 (10%), Method: PREINCUBATION): inactive; negative
- mutagenic call (Test System: AMES SALMONELLA TYPHIMURIUM, Strain/Indicator: TA100, Metabolic Activation: NONE, Method: PREINCUBATION): inactive; negative
- mutagenic call (Test System: AMES SALMONELLA TYPHIMURIUM, Strain/Indicator: TA100, Metabolic Activation: RAT, LIVER, S-9 (10%), Method: PREINCUBATION): inactive; negative

Compound: Nc1ccc2cc3ccc(N)cc3nc2c1
- mutagenic call (Test System: AMES SALMONELLA TYPHIMURIUM, Strain/Indicator: TA98, Metabolic Activation: HAMSTER, LIVER, S-9, AROCLOR 1254, Method: STANDARD PLATE): active; positive
- mutagenic call (Test System: AMES SALMONELLA TYPHIMURIUM, Strain/Indicator: TA98, Metabolic Activation: HAMSTER, LIVER, S-9, Method: STANDARD PLATE): active; positive
- mutagenic call (Test System: AMES SALMONELLA TYPHIMURIUM, Strain/Indicator: TA98, Metabolic Activation: MOUSE, LIVER, S-9, AROCLOR 1254, Method: STANDARD PLATE): active; positive
- mutagenic call (Test System: AMES SALMONELLA TYPHIMURIUM, Strain/Indicator: TA98, Metabolic Activation: MOUSE, LIVER, S-9, Method: STANDARD PLATE): active; positive
- mutagenic call (Test System: AMES SALMONELLA TYPHIMURIUM, Strain/Indicator: TA98, Metabolic Activation: NONE, Method: FLUCTUATION (MICROTITER)): active; positive
- mutagenic call (Test System: AMES SALMONELLA TYPHIMURIUM, Strain/Indicator: TA98, Metabolic Activation: RAT, LIVER, S-9, AROCLOR 1254, Method: STANDARD PLATE): active; positive
- mutagenic call (Test System: AMES SALMONELLA TYPHIMURIUM, Strain/Indicator: TA98, Metabolic Activation: RAT, LIVER, S-9, Method: STANDARD PLATE): active; positive
- mutagenic call (Test System: AMES SALMONELLA TYPHIMURIUM, Strain/Indicator: TA100, Metabolic Activation: NONE, Method: STANDARD PLATE): inactive; negative
- mutagenic call (Test System: AMES SALMONELLA TYPHIMURIUM, Strain/Indicator: TA100, Metabolic Activation: RAT, LIVER, S-9, AROCLOR 1254, Method: STANDARD PLATE): active; positive
- mutagenic call (Test System: AMES SALMONELLA TYPHIMURIUM, Strain/Indicator: TA100, Metabolic Activation: RAT, LIVER, S-9, Method: STANDARD PLATE): inactive; negative
- mutagenic call (Test System: AMES SALMONELLA TYPHIMURIUM, Strain/Indicator: TA1535, Metabolic Activation: MOUSE, LIVER, S-9, AROCLOR 1254, Method: STANDARD PLATE): inactive; negative
- mutagenic call (Test System: AMES SALMONELLA TYPHIMURIUM, Strain/Indicator: TA1535, Metabolic Activation: NONE, Method: PREINCUBATION): inactive; negative
- mutagenic call (Test System: AMES SALMONELLA TYPHIMURIUM, Strain/Indicator: TA1535, Metabolic Activation: NONE, Method: STANDARD PLATE): inactive; negative
- mutagenic call (Test System: AMES SALMONELLA TYPHIMURIUM, Strain/Indicator: TA1535, Metabolic Activation: RAT, LIVER, S-9, AROCLOR 1254, Method: STANDARD PLATE): inactive; negative
- mutagenic call (Test System: AMES SALMONELLA TYPHIMURIUM, Strain/Indicator: TA1535, Metabolic Activation: RAT, LIVER, S-9, TETRACHLOROBIPHENYL, Method: PREINCUBATION): inactive; negative
- mutagenic call (Test System: AMES SALMONELLA TYPHIMURIUM, Strain/Indicator: TA1535, Metabolic Activation: RAT, LIVER, S-9, Method: STANDARD PLATE): inactive; negative
- mutagenic call (Test System: AMES SALMONELLA TYPHIMURIUM, Strain/Indicator: TA1537, Metabolic Activation: HAMSTER, LIVER, S-9, AROCLOR 1254, Method: STANDARD PLATE): active; positive
- mutagenic call (Test System: AMES SALMONELLA TYPHIMURIUM, Strain/Indicator: TA1537, Metabolic Activation: HAMSTER, LIVER, S-9, Method: STANDARD PLATE): active; positive
- mutagenic call (Test System: AMES SALMONELLA TYPHIMURIUM, Strain/Indicator: TA1537, Metabolic Activation: MOUSE, LIVER, S-9, AROCLOR 1254, Method: STANDARD PLATE): active; positive
- mutagenic call (Test System: AMES SALMONELLA TYPHIMURIUM, Strain/Indicator: TA1537, Metabolic Activation: MOUSE, LIVER, S-9, Method: STANDARD PLATE): active; positive
- mutagenic call (Test System: AMES SALMONELLA TYPHIMURIUM, Strain/Indicator: TA1537, Metabolic Activation: NONE, Method: FLUCTUATION (MICROTITER)): active; positive
- mutagenic call (Test System: AMES SALMONELLA TYPHIMURIUM, Strain/Indicator: TA1537, Metabolic Activation: NONE, Method: PREINCUBATION): active; positive
- mutagenic call (Test System: AMES SALMONELLA TYPHIMURIUM, Strain/Indicator: TA1537, Metabolic Activation: RAT, LIVER, S-9, AROCLOR 1254, Method: STANDARD PLATE): active; positive
- mutagenic call (Test System: AMES SALMONELLA TYPHIMURIUM, Strain/Indicator: TA1537, Metabolic Activation: RAT, LIVER, S-9, TETRACHLOROBIPHENYL, Method: PREINCUBATION): active; positive
- mutagenic call (Test System: AMES SALMONELLA TYPHIMURIUM, Strain/Indicator: TA1537, Metabolic Activation: RAT, LIVER, S-9, Method: STANDARD PLATE): active; positive
- mutagenic call (Test System: AMES SALMONELLA TYPHIMURIUM, Strain/Indicator: TA1538, Metabolic Activation: HAMSTER, LIVER, S-9, AROCLOR 1254, Method: STANDARD PLATE): active; positive
- mutagenic call (Test System: AMES SALMONELLA TYPHIMURIUM, Strain/Indicator: TA1538, Metabolic Activation: HAMSTER, LIVER, S-9, Method: STANDARD PLATE): active; positive
- mutagenic call (Test System: AMES SALMONELLA TYPHIMURIUM, Strain/Indicator: TA1538, Metabolic Activation: MOUSE, LIVER, S-9, AROCLOR 1254, Method: STANDARD PLATE): active; positive
- mutagenic call (Test System: AMES SALMONELLA TYPHIMURIUM, Strain/Indicator: TA1538, Metabolic Activation: MOUSE, LIVER, S-9, Method: STANDARD PLATE): active; positive
- mutagenic call (Test System: AMES SALMONELLA TYPHIMURIUM, Strain/Indicator: TA1538, Metabolic Activation: NONE, Method: PREINCUBATION): inactive; negative
- mutagenic call (Test System: AMES SALMONELLA TYPHIMURIUM, Strain/Indicator: TA1538, Metabolic Activation: RAT, LIVER, S-9, AROCLOR 1254, Method: STANDARD PLATE): active; positive
- mutagenic call (Test System: AMES SALMONELLA TYPHIMURIUM, Strain/Indicator: TA1538, Metabolic Activation: RAT, LIVER, S-9, TETRACHLOROBIPHENYL, Method: PREINCUBATION): active; positive
- mutagenic call (Test System: AMES SALMONELLA TYPHIMURIUM, Strain/Indicator: TA1538, Metabolic Activation: RAT, LIVER, S-9, Method: STANDARD PLATE): active; positive
- mutagenic call (Test System: AMES SALMONELLA TYPHIMURIUM, Strain/Indicator: TA1977, Metabolic Activation: NONE, Method: PREINCUBATION): active; positive
- mutagenic call (Test System: AMES SALMONELLA TYPHIMURIUM, Strain/Indicator: TA1977, Metabolic Activation: RAT, LIVER, S-9, TETRACHLOROBIPHENYL, Method: PREINCUBATION): active; positive
- mutagenic call (Test System: AMES SALMONELLA TYPHIMURIUM, Strain/Indicator: TA1978, Metabolic Activation: RAT, LIVER, S-9, TETRACHLOROBIPHENYL, Method: PREINCUBATION): active; positive
- mutagenic call (Test System: AMES SALMONELLA TYPHIMURIUM, Strain/Indicator: TA7001, Metabolic Activation: NONE, Method: FLUCTUATION (MICROTITER)): inactive; negative
- mutagenic call (Test System: AMES SALMONELLA TYPHIMURIUM, Strain/Indicator: TA7002, Metabolic Activation: NONE, Method: FLUCTUATION (MICROTITER)): inactive; negative
- mutagenic call (Test System: AMES SALMONELLA TYPHIMURIUM, Strain/Indicator: TA7003, Metabolic Activation: NONE, Method: FLUCTUATION (MICROTITER)): inactive; negative
- mutagenic call (Test System: AMES SALMONELLA TYPHIMURIUM, Strain/Indicator: TA7004, Metabolic Activation: NONE, Method: FLUCTUATION (MICROTITER)): inactive; negative
- mutagenic call (Test System: AMES SALMONELLA TYPHIMURIUM, Strain/Indicator: TA7005, Metabolic Activation: NONE, Method: FLUCTUATION (MICROTITER)): active; positive
- mutagenic call (Test System: AMES SALMONELLA TYPHIMURIUM, Strain/Indicator: TA7006, Metabolic Activation: NONE, Method: FLUCTUATION (MICROTITER)): inactive; negative
- mutagenic call (Test System: CHINESE HAMSTER OVARY, Strain/Indicator: CHO-K1-BH4 (HGPRT)/6-THIOGUANINE, Metabolic Activation: NONE, Method: SUSPENSION/PLATE): active; positive
- mutagenic call (Test System: CHINESE HAMSTER V-79, Strain/Indicator: V-79/6-THIOGUANINE, Metabolic Activation: NONE, Method: FLASK ASSAY): active; positive
- mutagenic call (Test System: E. COLI, Strain/Indicator: WP2 UVRA, Metabolic Activation: HAMSTER, LIVER, S-9, AROCLOR 1254, Method: STANDARD PLATE): inactive; negative
- mutagenic call (Test System: E. COLI, Strain/Indicator: WP2 UVRA, Metabolic Activation: HAMSTER, LIVER, S-9, Method: STANDARD PLATE): inactive; negative
- mutagenic call (Test System: E. COLI, Strain/Indicator: WP2 UVRA, Metabolic Activation: MOUSE, LIVER, S-9, Method: STANDARD PLATE): inactive; negative
- mutagenic call (Test System: E. COLI, Strain/Indicator: WP2 UVRA, Metabolic Activation: NONE, Method: STANDARD PLATE): inactive; negative
- mutagenic call (Test System: MOUSE LYMPHOMA, Strain/Indicator: L5178Y (TK+/TK-), Metabolic Activation: NONE, Method: SUSPENSION/PLATE): active; positive
